Source: patent US9963696B2, “Method for screening mutant microorganism overproducing target metabolite using synthetic suicide genetic circuit” (Korea University Research and Business Foundation, priority 2014, dated 2018)

Experiments:
FMN ribozyme = assay: growth of yeast carrying the FMN suicide riboswitch with added or intracellularly produced FMN; format: cell-based, Saccharomyces cerevisiae
From the text: Using the same method as described in Example 1-1, a FMN ribozyme (Proc. Natl. Acad. Sci. USA Vol. 96, pp. 3584-3589, March 1999, “Engineering precision RNA molecular switches”)
Biochemistry was inserted into the 3′ UTR of the FCY1 gene (NC_001148.4). In order to examine whether the suicide riboswitch operates properly, an experiment for examining whether the growth rate of cells having the suicide riboswitch introduced therein changes depending on the concentration of FMN in the cells was performed.
Specifically, FMN was externally added to the culture medium.
In addition, the FMN1 gene was cloned into a p413GPD plasmid, which was then transformed into a strain having the FMN suicide riboswitch introduced therein so that FMN was produced in the cells. Also, the cells were treated with fluorocytosine. […] In addition, it could be seen that the absorbance at 660 nm was high due to the production of FMN (FIG. 6c).

glmS ribozyme = assay: growth of yeast carrying the glmS suicide riboswitch with externally added GlcN in the presence of fluorocytosine; format: cell-based, Saccharomyces cerevisiae
From the text: The gene fragment to be inserted was transformed into Saccharomyces cerevisiae BY4742. In order to examine whether the suicide riboswitch was inserted into the gene of the yeast, a colony selected on an SD-URA medium (2% glucose, 0.67% yeast nitrogen base without amino acids, 0.77 g/L CSM-URA dropout mixture) plate was selected. As a result, it could be seen that the glmS ribozyme was inserted into the 3′UTR (untranslated region) of FCY1 locus in the BY4742 strain.
In addition, in order to examine whether the suicide riboswitch operates properly, whether the growth rate of cells having the suicide riboswitch introduced therein changes depending on the concentration of GlcN6P in the cells was examined. In the presence of fluorocytosine, glucosamine (GlcN) was externally added to the culture medium so that it was converted to GlcN6P by intracellular hexokinase.
A BY4742 FGU strain and other strains, which have a suicide riboswitch introduced therein, were cultured in minimal media. For culture of BY4742 FGU, SD-URA medium supplemented with 5 mg/L of fluorocytosine was used. At 2 days after seeding, absorbance was used. To screen the GFA1 mutant library, medium supplemented with 10 mg/L of fluorocytosine was used, and to screen the HAD phosphatase library, medium supplemented with 20 mg/L of fluorocytosine was used (FIG. 2c).

[1] = FMN produced in the cells from FMN1 on p413GPD plasmid, treated with fluorocytosine

Structure (SMILES) | absorbance (FMN ribozyme; FMN externally added to culture medium, increasing concentration) | absorbance at 660 nm (FMN ribozyme; [1]) | growth rate of the cells (FMN ribozyme; [1]) | growth rate of cells having the suicide riboswitch (glmS ribozyme; GlcN externally added to culture medium, in the presence of fluorocytosine, increasing GlcN6P concentration) | absorbance at 660 nm (glmS ribozyme; various concentrations of added GlcN)
Cc1cc2nc3c(=O)[nH]c(=O)nc-3n(C[C@H](O)[C@H](O)[C@H](O)COP(=O)(O)O)c2cc1C [FMN, flavin mononucleotide] | the absorbance also increased | high | the growth rate of the cells was high | – | –
N[C@H]1C(O)O[C@H](CO)[C@@H](O)[C@@H]1O (some centres unmarked) [GlcN, glucosamine] | – | – | – | the growth rate of the cells increased | changed depending on the concentration of GlcN
